# US9493438B2, “4,4-difluoro-piperidine-compounds” (ROTTAPHARM BIOTECH S.R.L., priority 2012, dated 2016)
# Target: T1, human OX1 receptors (Homo sapiens, UniProt O43613)
# T1 construct: expressed in transfected cells; host or cells: CHO cells
# T1 sequence (O43613 1-425): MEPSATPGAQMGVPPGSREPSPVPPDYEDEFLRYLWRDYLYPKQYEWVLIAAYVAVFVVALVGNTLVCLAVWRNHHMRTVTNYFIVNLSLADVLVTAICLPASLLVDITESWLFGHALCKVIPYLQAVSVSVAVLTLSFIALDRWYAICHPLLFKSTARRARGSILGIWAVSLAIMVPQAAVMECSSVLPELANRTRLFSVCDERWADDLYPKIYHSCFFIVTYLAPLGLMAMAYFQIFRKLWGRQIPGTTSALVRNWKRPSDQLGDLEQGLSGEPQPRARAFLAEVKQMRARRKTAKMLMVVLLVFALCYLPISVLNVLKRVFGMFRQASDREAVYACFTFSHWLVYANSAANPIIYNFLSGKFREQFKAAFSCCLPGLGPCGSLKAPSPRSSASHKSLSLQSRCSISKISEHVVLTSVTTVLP
# Assay: antagonistic activity against human OX1 receptor, [Ca2+]i fluorimetry in transfected CHO cells
# Format: cell-based
# Settings: CHO cells transfected with human recombinant OX1; activated with orexin-A 3 nM; pKb = co-logarithm of apparent dissociation constant (modified Cheng Prusoff)
# Description: Thus the plate was loaded with the calcium dye (Fluo-4NW/probenecid in HBSS, Hepes 20 mM, pH 7.4; Invitrogen) at 37° C. for 60 min. Afterward the temperature was equilibrated at 22° C. for 15 min and the [Ca2+]i measured directly on the plate by using a fluorescent plate reader (CeliLux Perkin Elmer).
# Invention compounds were dissolved in DMSO, diluted in HBSS (DMSO, 0.3% final) and added to the wells. After 5 min CHO cells were activated with orexin-A, 3 nM while HEK-293 cells were activated with orexin-B, 10 nM. […] The antagonistic activity has been expressed as pKb (co-logarithm of the apparent dissociation constant calculated by using the modified Cheng Prusoff equation). The results are expressed as percent of control specific […] response ((measured specific response/control specific agonist response)×100) obtained in the presence of the test compounds.
# The IC50 values (concentration causing a half-maximal inhibition of the control specific agonist response) were determinated by non-linear regression analysis of the concentration curves generated with mean replicate values using hill equation curve fitting. The IC50 values are obtained by the arithmetical mean of at least two experiments.
Kb [nM],PKb OX1,Compound
126,–,"Cc1cnc(-c2ncccn2)c(C(=O)N2CCC(F)(F)CC2CNc2ccc(Cl)cn2)c1 (racemic) [Compound 15, (RS)(2-(((5-chloropyridin-2-yl)amino)methyl)-4,4-difluoropiperidin-1-yl)(5-methyl-2-(pyrimidin-2-yl)pyridin-3-yl)methanone]"
25.1,–,"Cc1ncc(-c2ccc(F)cc2C(=O)N2CCC(F)(F)CC2CNc2ccc(C(F)(F)F)cn2)cn1 (racemic) [Compound 30, (RS)(4,4-difluoro-2-(((5-(trifluoromethyl)pyridin-2-yl)amino)methyl)piperidin-1-yl)(5-fluoro-2-(2-methylpyrimidin-5-yl)phenyl)methanone]"
63.1,–,"O=C(c1nc(C(F)(F)F)ccc1-c1ncccn1)N1CCC(F)(F)CC1CNc1ccc(C(F)(F)F)cn1 (single isomer, unassigned; isomer a) [Compound 40, (4,4-difluoro-2-(((5-(trifluoromethyl)pyridin-2-yl)amino)methyl)piperidin-1-yl)(3-(pyrimidin-2-yl)-6-(trifluoromethyl)pyridin-2-yl)methanone (isomer A)]"
31.6,–,O=C(c1ccnc2ccccc12)N1CCC(F)(F)CC1CNc1ccc(C(F)(F)F)cn1 (racemic) [Compound 35]
15.8,–,Cc1ccc(-c2ncccn2)c(C(=O)N2CCC(F)(F)CC2CNc2ccc(C#N)cn2)n1 (racemic) [Compound 29]
2.51,–,"Cc1ccc(-c2ncccn2)c(C(=O)N2CCC(F)(F)CC2CNc2ccc(Cl)cn2)c1 (single isomer, unassigned; isomer a) [Compound 7, (2-(((5-chloropyridin-2-yl)amino)methyl)-4,4-difluoropiperidin-1-yl)(5-methyl-2-(pyrimidin-2-yl)phenyl)methanone (isomer A)]"
2,–,"Cc1nc(C(=O)N2CCC(F)(F)CC2CNc2ccc(Cl)cn2)c(-c2ccccc2)s1 (single isomer, unassigned; isomer a) [Compound 2, (2-(((5-chloropyridin-2-yl)amino)methyl)-4,4-difluoropiperidin-1-yl)(2-methyl-5-phenylthiazol-4-yl)methanone (isomer A)]"
100,–,"O=C(c1ccccc1OC1CCCC1)N1CCC(F)(F)CC1CNc1ccc(Cl)cn1 (racemic) [Compound 13, (RS)(2-(((5-chloropyridin-2-yl)amino)methyl)-4,4-difluoropiperidin-1-yl)(2-(cyclopentyloxy)phenyl)methanone]"
7.94,–,"CCOc1ccccc1C(=O)N1CCC(F)(F)CC1CNc1ccc(Cl)cn1 (racemic) [Compound 10, (RS)(2-(((5-chloropyridin-2-yl)amino)methyl)-4,4-difluoropiperidin-1-yl)(2-ethoxyphenyl)methanone]"
–,8.2,"(RS)(4,4-difluoro-2-(((5-(trifluoromethyl)pyridin-2-yl)amino)methyl)piperidin-1-yl)(6-methyl-3-(pyrimidin-2-yl)pyridin-2-yl)methanone [Compound 42]"
5.01,–,"O=C(c1cc(Cl)ccc1-c1ncccn1)N1CCC(F)(F)CC1CNc1ccc(Cl)cn1 (racemic) [Compound 19, (RS)(5-chloro-2-(pyrimidin-2-yl)phenyl)(2-(((5-chloropyridin-2-yl)amino)methyl)-4,4-difluoropiperidin-1-yl)methanone]"
200,–,"Cc1ccc(-c2ccccc2)c(C(=O)N2CCC(F)(F)CC2CNc2ccc(C(F)(F)F)cn2)n1 (single isomer, unassigned; isomer a) [Compound 37, (4,4-difluoro-2-(((5-(trifluoromethyl)pyridin-2-yl)amino)methyl)piperidin-1-yl)(6-methyl-3-phenylpyridin-2-yl)methanone (isomer A)]"
15.8,–,"Cc1ccc(-n2nccn2)c(C(=O)N2CCC(F)(F)CC2CNc2ccc(Cl)cn2)n1 (single isomer, unassigned; isomer b) [Compound 9, (2-(((5-chloropyridin-2-yl)amino)methyl)-4,4-difluoropiperidin-1-yl)(6-methyl-3-(2H-1,2,3-triazol-2-yl)pyridin-2-yl)methanone (isomer B)]"
2.51,–,"O=C(c1nccc2ccccc12)N1CCC(F)(F)CC1CNc1ccc(C(F)(F)F)cn1 (racemic) [Compound 34, (RS)(4,4-difluoro-2-(((5-(trifluoromethyl)pyridin-2-yl)amino)methyl)piperidin-1-yl)(isoquinolin-1-yl)methanone]"
7.94,–,"Cc1ccc(-c2ncccn2)c(C(=O)N2CCC(F)(F)CC2COc2ccc(C(F)(F)F)cn2)n1 (racemic) [Compound 48, (±)(4,4-difluoro-2-(((5-(trifluoromethyl)pyridine-2-yl)oxy)methyl)piperidin-1-yl)(6-methyl-3-(pyrimidin-2-yl)pyridin-2-yl)methanone]"
2,–,"O=C(c1nccc2ccccc12)N1CCC(F)(F)CC1CNc1ncc(C(F)(F)F)cc1F (racemic) [Compound 33, (RS)(4,4-difluoro-2-(((3-fluoro-5-(trifluoromethyl)pyridin-2-yl)amino)methyl)piperidin-1-yl)(isoquinolin-1-yl)methanone]"
0.631,–,"O=C(c1nccc2ccccc12)N1CCC(F)(F)CC1CNc1ccc(Cl)cn1 (racemic) [Compound 22, (RS)(2-(((5-chloropyridin-2-yl)amino)methyl)-4,4-difluoropiperidin-1-yl)(isoquinolin-1-yl)methanone]"
5.01,–,Cc1ccc(-c2cccnc2)c(C(=O)N2CCC(F)(F)CC2CNc2ccc(C(F)(F)F)cn2)n1 (racemic) [Compound 50]
5.01,–,"Cc1ccc(-c2ncccn2)c(C(=O)N2CCC(F)(F)CC2CNc2ccc(Cl)cn2)c1 (racemic) [Compound 6, (RS)(2-(((5-chloropyridin-2-yl)amino)methyl)-4,4-difluoropiperidin-1-yl)(5-methyl-2-(pyrimidin-2-yl)phenyl)methanone]"
39.8,–,"Cc1ccc(-c2ccncc2)c(C(=O)N2CCC(F)(F)CC2CNc2ccc(C(F)(F)F)cn2)n1 (racemic) [Compound 52, (RS) (4,4-difluoro-2-(((5-(trifluoromethyl)pyridin-2-yl)amino)methyl)piperidin-1-yl)(6-methyl-[3,4′-bipyridin]-2-yl)methanone]"
100,–,"Cc1ccc(-c2ncccn2)c(C(=O)N2CCC(F)(F)CC2CNc2ccc(Cl)cn2)n1 (single isomer, unassigned; isomer b) [Compound 17, (2-(((5-chloropyridin-2-yl)amino)methyl)-4,4-difluoropiperidin-1-yl)(6-methyl-3-(pyrimidin-2-yl)pyridin-2-yl)methanone (isomer B)]"
2.51,–,"Cc1ccc(-c2ncccn2)c(C(=O)N2CCC(F)(F)CC2CNc2ccc(Cl)cn2)n1 (racemic) [Compound 14, (RS)(2-(((5-chloropyridin-2-yl)amino)methyl)-4,4-difluoropiperidin-1-yl)(6-methyl-3-(pyrimidin-2-yl)pyridin-2-yl)methanone]"
15.8,–,"O=C(c1ccncc1-c1ncccn1)N1CCC(F)(F)CC1CNc1ccc(Cl)cn1 (racemic) [Compound 28, (RS)(2-(((5-chloropyridin-2-yl)amino)methyl)-4,4-difluoropiperidin-1-yl)(3-(pyrimidin-2-yl)pyridin-4-yl)methanone]"
10,–,"Cc1nc(C(=O)N2CCC(F)(F)CC2CNc2ccc(Cl)cn2)c(-c2ccccc2)s1 (racemic) [Compound 1, (RS)(2-(((5-chloropyridin-2-yl)amino)methyl)-4,4-difluoropiperidin-1-yl)(2-methyl-5-phenylthiazol-4-yl)methanone]"
1.58,–,"Cc1ccc(-n2nccn2)c(C(=O)N2CCC(F)(F)CC2CNc2ccc(Cl)cn2)n1 (single isomer, unassigned; isomer a) [Compound 8, (2-(((5-chloropyridin-2-yl)amino)methyl)-4,4-difluoropiperidin-1-yl)(6-methyl-3-(2H-1,2,3-triazol-2-yl)pyridin-2-yl)methanone (isomer A)]"
3.16,–,"O=C(c1ncccc1-c1ncccn1)N1CCC(F)(F)CC1CNc1ccc(C(F)(F)F)cn1 (racemic) [Compound 54, (RS) (4,4-difluoro-2-(((5-(trifluoromethyl)pyridin-2-yl)amino)methyl)piperidin-1-yl)(3-(pyrimidin-2-yl)pyridin-2-yl)methanone]"
79.4,–,"O=C(c1nccc2ccccc12)N1CCC(F)(F)CC1CNc1ccc(Cl)cn1 (single isomer, unassigned; isomer a) [Compound 23, (2-(((5-chloropyridin-2-yl)amino)methyl)-4,4-difluoropiperidin-1-yl)(isoquinolin-1-yl)methanone (isomer A)]"
